{"source": "patent US6582719B2", "about": "“Combinations of antiseptic and antibiotic agents that inhibit the development of resistant microorganisms” (priority 2001, dated 2003)", "key": {"Pseudomonas aeruginosa": {"tested_on": "Pseudomonas aeruginosa", "test": "Zones of inhibition of treated catheter segments on seeded trypticase soy agar plates, 24 hours"}, "S. epidermidis [1]": {"tested_on": "S. epidermidis", "type": "cell-based, Staphylococcus epidermidis"}, "S. epidermidis [2]": {"tested_on": "S. epidermidis", "test": "Minimum inhibitory concentration in Trypticase Soy Broth, synergy (fractional inhibitory concentration)", "type": "cell-based, Staphylococcus epidermidis"}, "[3]": {"settings": "tetrahydrofuran/methanol solvent systems"}, "[4]": {"settings": "catheter treated with 2% bismuth salt"}, "[5]": {"settings": "catheter treated with 2% bismuth salt + 3% minocycline"}, "[6]": {"settings": "10-20 passages, inoculum 10^4 cfu/ml"}, "[7]": {"settings": "10 transfers, inoculum 10^6 cfu/ml"}}, "note": "Like-named read-outs stand apart in the source and are kept apart here.", "data": [{"compound": "O=[N+]([O-])[O-].O=[N+]([O-])[O-].O=[N+]([O-])[O-].[Bi+3]", "note": "[Bismuth Nitrate, bismuth nitrate]", "values": [{"measurement": "Zones of Inhibition Against Pseudomonas aeruginosa (mm) 2% Bismuth Salt", "setting": "Pseudomonas aeruginosa; [4]", "value": 0, "unit": "mm"}, {"measurement": "Zones of Inhibition Against Pseudomonas aeruginosa (mm) 2% Bismuth Salt + 3% Minocycline", "setting": "Pseudomonas aeruginosa; [5]", "value": 15, "unit": "mm"}]}, {"compound": "CC(=O)[O-].CC(=O)[O-].CC(=O)[O-].[Bi+3]", "note": "[Bismuth acetate, bismuth acetate]", "values": [{"measurement": "Zones of Inhibition Against Pseudomonas aeruginosa (mm) 2% Bismuth Salt", "setting": "Pseudomonas aeruginosa", "value": 0, "unit": "mm"}, {"measurement": "Zones of Inhibition Against Pseudomonas aeruginosa (mm) 2% Bismuth Salt + 3% Minocycline", "setting": "Pseudomonas aeruginosa", "value": 17, "unit": "mm"}]}, {"compound": "O=C([O-])c1ccccc1.O=C([O-])c1ccccc1.O=C([O-])c1ccccc1.[Bi+3]", "note": "[Bismuth benzoate, bismuth benzoate]", "values": [{"measurement": "Zones of Inhibition Against Pseudomonas aeruginosa (mm) 2% Bismuth Salt", "setting": "Pseudomonas aeruginosa", "value": 0, "unit": "mm"}, {"measurement": "Zones of Inhibition Against Pseudomonas aeruginosa (mm) 2% Bismuth Salt + 3% Minocycline", "setting": "Pseudomonas aeruginosa", "value": 18, "unit": "mm"}]}, {"compound": "[Bi+3].[O-]B([O-])[O-]", "note": "[Bismuth borate, bismuth borate]", "values": [{"measurement": "Zones of Inhibition Against Pseudomonas aeruginosa (mm) 2% Bismuth Salt", "setting": "Pseudomonas aeruginosa", "value": 0, "unit": "mm"}, {"measurement": "Zones of Inhibition Against Pseudomonas aeruginosa (mm) 2% Bismuth Salt + 3% Minocycline", "setting": "Pseudomonas aeruginosa", "value": 13, "unit": "mm"}]}, {"compound": "O=C([O-])CC(O)(CC(=O)[O-])C(=O)[O-].[Bi+3]", "note": "[Bismuth citrate, bismuth citrate]", "values": [{"measurement": "Zones of Inhibition Against Pseudomonas aeruginosa (mm) 2% Bismuth Salt", "setting": "Pseudomonas aeruginosa", "value": 0, "unit": "mm"}, {"measurement": "Zones of Inhibition Against Pseudomonas aeruginosa (mm) 2% Bismuth Salt + 3% Minocycline", "setting": "Pseudomonas aeruginosa", "value": 17, "unit": "mm"}]}, {"compound": "CC(=O)O.CC(=O)O.NC(=N\\CCCCCC/N=C(N)/N=C(\\N)Nc1ccc(Cl)cc1)/N=C(\\N)Nc1ccc(Cl)cc1", "note": "[Chlorhexidine (CHX), chlorhexidine diacetate]", "values": [{"measurement": "INCREASE IN MIC (fold)", "setting": "S. epidermidis [1]", "value": 2, "unit": "fold"}, {"measurement": "MIC (μg/ml) AFTER PASSAGE", "setting": "S. epidermidis [1]", "value": 1.0, "unit": "µg/mL"}, {"measurement": "MIC (μg/ml) BEFORE PASSAGE", "setting": "S. epidermidis [1]", "value": 0.5, "unit": "µg/mL"}, {"measurement": "MIC", "setting": "S. epidermidis [2]; inoculum of 10^4 cfu/ml", "value": 0.5, "unit": "µg/mL"}]}, {"compound": "CN(C)c1ccc(O)c2c1C[C@H]1C[C@H]3[C@H](N(C)C)C(O)=C(C(N)=O)C(=O)[C@@]3(O)C(O)=C1C2=O", "note": "[Minocycline (M), minocycline]", "values": [{"measurement": "INCREASE IN MIC (fold)", "setting": "S. epidermidis [1]; [6]", "value": 2, "unit": "fold"}, {"measurement": "INCREASE IN MIC (fold)", "setting": "S. epidermidis [1]; [7]", "value": 4, "unit": "fold"}]}, {"compound": "CCn1cc(C(=O)O)c(=O)c2cc(F)c(N3CCNCC3)cc21", "note": "[Norfloxacin (Nf), norfloxacin]", "values": [{"measurement": "INCREASE IN MIC (fold)", "setting": "S. epidermidis [1]; [6]", "value": 40, "unit": "fold"}, {"measurement": "upper limit incorporated (low solubility in tetrahydrofuran/methanol)", "setting": "[3]", "value": "about 0.5 percent (w/v)"}]}, {"compound": "CO[C@H]1/C=C/O[C@@]2(C)Oc3c(C)c(O)c4c(O)c(c(/C=N/N5CCN(C)CC5)c(O)c4c3C2=O)NC(=O)/C(C)=C\\C=C\\[C@H](C)[C@H](O)[C@@H](C)[C@@H](O)[C@@H](C)[C@H](OC(C)=O)[C@@H]1C", "note": "[Rifampin (R), rifampin]", "values": [{"measurement": "INCREASE IN MIC (fold)", "setting": "S. epidermidis [1]; [6]", "value": "25,000 fold"}]}, {"compound": "NC[C@H]1O[C@H](O[C@H]2[C@H](O)[C@@H](O[C@H]3O[C@H](CO)[C@@H](O)[C@H](N)[C@H]3O)[C@H](N)C[C@@H]2N)[C@H](N)C[C@@H]1O", "note": "[Tobramycin (Tb), tobramycin]", "values": [{"measurement": "INCREASE IN MIC (fold)", "setting": "S. epidermidis [1]; [6]", "value": 20, "unit": "fold"}]}, {"compound": "Oc1cc(Cl)ccc1Oc1ccc(Cl)cc1Cl", "note": "[Triclosan (T), triclosan]", "values": [{"measurement": "INCREASE IN MIC (fold)", "setting": "S. epidermidis [1]; [6]", "value": 7, "unit": "fold"}, {"measurement": "INCREASE IN MIC (fold)", "setting": "S. epidermidis [1]; [7]", "value": 7, "unit": "fold"}, {"measurement": "MIC", "setting": "S. epidermidis [2]; Staphylococcus epidermidis, 24 h", "value": 0.35, "unit": "µg/mL"}]}, {"compound": "bismuth mandelate", "values": [{"measurement": "Zones of Inhibition Against Pseudomonas aeruginosa (mm) 2% Bismuth Salt", "setting": "Pseudomonas aeruginosa", "value": 0, "unit": "mm"}, {"measurement": "Zones of Inhibition Against Pseudomonas aeruginosa (mm) 2% Bismuth Salt + 3% Minocycline", "setting": "Pseudomonas aeruginosa", "value": 18.5, "unit": "mm"}]}, {"compound": "bismuth palmitate", "values": [{"measurement": "Zones of Inhibition Against Pseudomonas aeruginosa (mm) 2% Bismuth Salt", "setting": "Pseudomonas aeruginosa", "value": 0, "unit": "mm"}, {"measurement": "Zones of Inhibition Against Pseudomonas aeruginosa (mm) 2% Bismuth Salt + 3% Minocycline", "setting": "Pseudomonas aeruginosa", "value": 18.5, "unit": "mm"}]}, {"compound": "bismuth salicylate", "values": [{"measurement": "Zones of Inhibition Against Pseudomonas aeruginosa (mm) 2% Bismuth Salt", "setting": "Pseudomonas aeruginosa", "value": 0, "unit": "mm"}, {"measurement": "Zones of Inhibition Against Pseudomonas aeruginosa (mm) 2% Bismuth Salt + 3% Minocycline", "setting": "Pseudomonas aeruginosa", "value": 17, "unit": "mm"}]}, {"compound": "bismuth sulfadiazine", "values": [{"measurement": "Zones of Inhibition Against Pseudomonas aeruginosa (mm) 2% Bismuth Salt", "setting": "Pseudomonas aeruginosa; [4]", "value": 6.5, "unit": "mm"}, {"measurement": "Zones of Inhibition Against Pseudomonas aeruginosa (mm) 2% Bismuth Salt + 3% Minocycline", "setting": "Pseudomonas aeruginosa; [5]", "value": 15.5, "unit": "mm"}]}, {"compound": "polyhexamethylenebiguanide [PHMB]", "values": [{"measurement": "INCREASE IN MIC (fold)", "setting": "S. epidermidis [1]", "value": 1.0, "unit": "fold"}, {"measurement": "MIC (μg/ml) AFTER PASSAGE", "setting": "S. epidermidis [1]", "value": 0.31, "unit": "µg/mL"}, {"measurement": "MIC (μg/ml) BEFORE PASSAGE", "setting": "S. epidermidis [1]", "value": 0.31, "unit": "µg/mL"}]}]}
